Values quoted from earlier work as cited in patent US12611419B2, “Liposomal composition for use in a method of treating Parkinson's disease” (INNOMEDICA HOLDING AG, priority 2017, dated 2026).

Experiments:
[1] = tested on: rodent model of Parkinson's disease; conditions: in vivo
B4galnt1 transgenic mice = conditions: mice deficient in GM1 family gangliosides
spinal cord injuries = conditions: patients

For `CCCCCCCCCCCCC/C=C/C(O)C(COC1OC(CO)C(OC2OC(CO)C(OC3OC(CO)C(O)C(OC4OC(CO)C(O)C(O)C4O)C3NC(C)=O)C(OC3(C(=O)O)CC(O)C(NC(C)=O)C(C(O)C(O)CO)O3)C2O)C(O)C1O)NC(=O)C(Cl)Cl` (centres unmarked) [LIGA20], the “Parkinson's symptoms” value [1] is given as “reduce Parkinson's symptoms”.
In the case of monosialotetrahexosylganglioside [GM1], the “pathological CNS manifestations” value (B4galnt1 transgenic mice) is given as “ameliorated these pathological CNS manifestations”, the “outcome in spinal cord injuries” value (spinal cord injuries) is given as “positive outcomes in patients” and the “safety, open pilot study” value (PD patients; 10 PD patients, 1000 mg i.v. then 200 mg/day subcutaneous, 18 weeks) is given as “safe and well tolerated”. The “anti-GM1 antibody titres, open pilot study” value (PD patients; 10 PD patients, 18 weeks) was “none of the patients developed elevated anti-GM1 antibody titres”, the “PET (11)C-methylphenidate binding” value (PD patients; GM1-treated groups, baseline, week 24, 1-2 years later) was “significant slowing of binding loss in several striatal regions” and the “safety of long-term administration” value (PD patients; delayed start study) was “safe and well tolerated”. For the same compound, the “UPDRS motor scores, early-start group” value (PD patients; delayed start study, week 24) was “significant improvement in UPDRS motor scores”, the “UPDRS motor scores, five-year open extension” value (PD patients; end of 5 years of GM1 use, off period) was “lower UPDRS motor scores” and the “UPDRS motor scores vs placebo” value (PD patients; randomized placebo-controlled study, 45 individuals, 16 weeks) was “significant differences between groups”. For the same compound, the “adverse events at the injection site” value (PD patients; subcutaneous administration) was “pain, irritation of the skin site and severe haematoma at the injection site occur”.
